Laboratory results published in patent publication US9682930B2, “Rheumatoid arthritis treatment” (Avexxin AS, priority 2011, dated 2017).
“Also recorded” adds a separate entry of the source.

Key:
[1] = test system: PGE2 production in SW982 cells; test: TNF induced PGE2 production in SW982 cells (EIA/ELISA); type: cell-based; settings: for Fold change 1 (PGE2) / Fold change 2 (PGE2) / Mean fold change (PGE2): relative to Ctrl
Method: PGE2 production was monitored by ELISA. Those cells receiving treatment underwent reincubation (prior to stimulation) with either Compound 1 (AVX001) or Compound 2 (AVX002) for 2 hours.
FIGS. 3A and 3B show the determination of IC50 values for Compound 1 and Compound 2 inhibition of TNF induced PGE2 production in SW982 cells. […] corresponds to the PGE2 level induced with TNFα in combination with ethanol after incubation for 24 hours.
(§1) The Cell Culture SW982 model cell line at a confluent or spheroid state (Wada Y, 2005) was used since gene expression and generation of proinflammatory cytokines resemble RA-derived synovial fibroblast-like cells.
(§2) For stimulation experiments 0.5 mL of a cell suspension (5-7×10^5 cells/mL) were seeded inside the inner wells of 48-well plates. The outer wells were filled with 0.5 mL PBS. For nearly confluent populations, cells were incubated for one day (37° C., 5% CO2). In order to yield post-confluent cells, plates were left in the incubator for 3 days. After this incubation time, 300 μL of the supernatant was removed and replaced by 50 μL of stimulation medium.
(§3) Inhibition was performed in a similar manner as the stimulation. After seeding, incubation and replacement of the medium by 200 μL 0.5% FBS in DMEM, 50 μL of the particular inhibitor solution was added (Table 1). After 2 hours at 37° C., 50 μL of the supernatant was removed and replaced by the three stimulants described above.
Samples and controls were slowly thawed and diluted (between 1:1 and 1:2500) in the standard diluent. The maximal dilution was 1:10 for one step. That is why several intermediate dilutions were prepared. In the beginning all values were determined from duplicates. After having minimized technical errors, samples were only analyzed as individuals. All further steps, except for some minor corrections, were performed according to the manufacturer's recommendations as can be found in the manual of the EIA kit. In order to optimize the results, the incubation time of the alkaline phosphatase substrate was prolonged by 15 minutes. During the incubation, the plates were kept in the dark. An example of the arrangements of the samples and controls is illustrated in the appendix. The read-out was carried out with a Multiscan plate reader (Ascent Labsystems) at wavelengths of 414 and 595 nm after 10 seconds shaking at 120 rpm. The corresponding software to obtain the data was the Ascent software for Multiscan, Version 2.4.1.
SW982 cells were stimulated with TNF for various lengths ranging from 12-48 hours.

[2] = test system: arachidonic acid (AA) release in SW982 cells; test: TNF-induced arachidonic acid (AA) release in SW982 cells; type: cell-based
Method: as §1, §2, §3
We evaluted inhibition in SW982 cells by analyzing arachidonic acid (AA) release in response to TNF with or without inhibitor pre-treatment. […] The inhibitory effect of Compound 2 was compared to that of ATK and SB203580 (FIG. 1b).

[3] = test system: COX2 expression in SW982 cells; test: Quantitative RT-PCR of COX2 expression in TNF stimulated SW982 cells; type: cell-based; settings: TNF 24 hrs
Method: (§4) The expression of COX2, MMP and IL-8, both known to be central in inflammation and/or joint destruction was evaluated by quantiative RT-PCR. SW 982 cells were seeded at a density of 0.1×10^6 cells/well in a 6-well format and then serum-starved after reaching 2-days post confluency. Cells were preincubated with or without inhibitors for 2 hrs prior to treatment in absence or presence of TNF for 24 hrs. The fold-difference in expression of target inflammatory genes relative to an endogenous control (GAPDH) was determined using ΔΔCt method (ΔΔCt=Cttarget−CtGAPDHt)treated−(Cttarget−CtGAPDH)untreated. Mean±SD of 3 separate experiments.

[4] = test system: MMP3 expression in SW982 cells; test: Quantitative RT-PCR of MMP expression in TNF stimulated SW982 cells; type: cell-based; settings: 2 hrs preincubation, TNF 24 hrs
Method: as §4

[5] = test system: collagen-induced arthritis; test: Mouse model of collagen-induced arthritis (CIA), arthritis index; type: in vivo, male DBA/1 mice; settings: CIA mice, treatment from Day 28 for 14 days, FIG. 7
Method: CIA was induced in male DBA/1 mice (except naive group) by immunization with 0.1 mL emulsion containing an equal volume of bovine collagen solution (2 mg/mL) and Freund's Complete Adjuvant antigen solution at the tail base. The first injection was given on Day 0 and the second injection as booster was given on Day 21. Treatment was started on Day 28 and continued for 14 days.

[6] = test system: ESE-1 mRNA expression in SW982 cells; test: TNF-induced ESE-1 mRNA expression in postconfluent SW982 cells; type: cell-based; settings: 2 hours preincubation, 6 hours 10 ng/ml TNF
Method: The cells were starved in 0% FCS-DMEM overnight before experimental treatment consisting of 2 hours preincubation of inhibitors followed by 6 hours stimulation with 10 ng/ml TNF
As a control, the NF-kB inhibitor BAY-7082 is included.

[7] = test system: IL-8 expression in SW982 cells; test: Quantitative RT-PCR of IL-8 expression in TNF stimulated SW982 cells; type: cell-based; settings: TNF 24 hrs
Method: as §4

[8] = SW982 cells, 2 hrs preincubation, n = 3
[9] = relative to GAPDH, ΔΔCt, n = 3, mean +/- SD

Compound: CCCCC/C=C\C/C=C\C/C=C\C/C=C\CCCC(=O)C(F)(F)F [ATK, reference compound]
- Effect on PGE2 production in response to TNF stimulation ([1]; SW982 cells): reduced PGE2 production to basal levels

Compound: CC/C=C\C/C=C\C/C=C\C/C=C\C/C=C\CCSCC(=O)C(F)(F)F [Compound 2]
- IC50 ([2]; TNF 10 ng/ml, inhibitor pre-treatment, read-out: IC50 for reduction of TNF-induced release of AA): ~1000 nM
- Effect on AA release ([2]; TNF-induced): normalizes AA-release to basal level
- % Inhibition of induction of COX2 message [3, 8]: 42.22%
- Average fold induction of COX2 transcript, Compound 2/TNF [3, 9]: 5.40 +/− 4.32
- % Inhibition (PGE2) ([1]; 5 uM inhibitor + TNF): 107.3%
- Mean PGE2 ([1]; 5 uM inhibitor + TNF): 87.5
- Fold change 1 (PGE2) ([1]; 5 uM inhibitor + TNF): 0.64
- Fold change 2 (PGE2) ([1]; 5 uM inhibitor + TNF): 0.30
- Mean fold change (PGE2) ([1]; 5 uM inhibitor + TNF): 0.47
- % Inhibition (PGE2) ([1]; 10 uM inhibitor + TNF): 103.7%
- Mean PGE2 ([1]; 10 uM inhibitor + TNF): 147.5
- Fold change 1 (PGE2) ([1]; 10 uM inhibitor + TNF): 1.34
- Fold change 2 (PGE2) ([1]; 10 uM inhibitor + TNF): 0.38
- Mean fold change (PGE2) ([1]; 10 uM inhibitor + TNF): 0.86
- Effect on PGE2 production in response to TNF stimulation ([1]; SW982 cells): reduced PGE2 production to basal levels
- IC50 ([1]; SW982 cells, FIG. 3, read-out: IC50 for inhibition of TNF induced PGE2 production): ~430 nM
- % Inhibition of induction of MMP3 message [4]: ~58%
- Reduction of arthritis index (AI) [5]: More Effective than ENBREL® (Etanercept) in Reducing an Arthritis Index
- Regulation of TNF-induced ESE-1 expression [6]: in a dose dependent manner; also recorded: similar, if not better, regulation of ESE-1 expression than the known NF-kB inhibitor BAY-7082
- % Inhibition of induction of IL-8 message [7, 8]: 53.49%
- Average fold induction of IL-8 transcript, Compound 2/TNF [7, 9]: 39.21 +/− 10.76

Compound: C[S+]([O-])c1ccc(-c2nc(-c3ccncc3)c(-c3ccc(F)cc3)[nH]2)cc1 (centres unmarked) [SB203580, reference compound]
- Mean PGE2 ([1]; 10 uM inhibitor + TNF): 25.6
- Fold change 1 (PGE2) ([1]; 10 uM inhibitor + TNF): 0.18
- Fold change 2 (PGE2) ([1]; 10 uM inhibitor + TNF): 0.09
- Mean fold change (PGE2) ([1]; 10 uM inhibitor + TNF): 0.14
- inhibition at 10 µM ([1]; Homo sapiens, SW982, 10 uM inhibitor + TNF): 111%
- Effect on PGE2 production in response to TNF stimulation ([1]; SW982 cells): depleted PGE2 levels to below basal release

Compound: COc1ccc2c(c1)c(CC(=O)O)c(C)n2C(=O)c1ccc(Cl)cc1 [indomethasin, reference compound]
- Regulation of TNF-induced ESE-1 expression [6]: poorer regulation of TNF induced ESE-1 expression than the control
